These compounds were tested against ALK2 (Homo sapiens (Human), UniProt Q04771) (assay: ALK2 inhibition, LanthaScreen Eu Kinase Binding Assay (ThermoFisher Scientific / Life Technologies)). Settings: read-out: Measured Ki (IC50) Value for Compounds: IC50.
Method: Biochemical assays to measure the inhibitory effects of the compounds were performed by ThermoFisher Scientific (Life Technologies). ALK2 inhibition was tested using LanthaScreen™ Eu Kinase Binding Assay screening protocol.

ALK2, sequence (Q04771 21-509): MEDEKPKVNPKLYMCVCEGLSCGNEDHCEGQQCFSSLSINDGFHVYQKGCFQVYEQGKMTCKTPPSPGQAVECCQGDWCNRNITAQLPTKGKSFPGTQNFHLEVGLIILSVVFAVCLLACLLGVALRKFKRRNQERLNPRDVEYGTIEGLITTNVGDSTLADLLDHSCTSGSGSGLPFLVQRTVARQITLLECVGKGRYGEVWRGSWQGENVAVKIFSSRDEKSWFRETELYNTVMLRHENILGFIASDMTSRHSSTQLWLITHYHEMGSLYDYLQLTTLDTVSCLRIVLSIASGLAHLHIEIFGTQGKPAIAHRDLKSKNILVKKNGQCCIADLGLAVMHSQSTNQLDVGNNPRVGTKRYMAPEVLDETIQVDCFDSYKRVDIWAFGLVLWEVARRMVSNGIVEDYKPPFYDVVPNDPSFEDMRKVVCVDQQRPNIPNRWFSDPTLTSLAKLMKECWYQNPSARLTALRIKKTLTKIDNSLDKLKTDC

IC50 [nM]	Compound
< 100	COc1cc(-n2cnc(Nc3nc(N4CCC[C@@H]4CO)nc4cc(Br)ccc34)c2)cc(OC)c1OC [Compound 382a, (R)-(1-(7-bromo-4-((1-(3,4,5-trimethoxyphenyl)-1H-imidazol-4-yl)amino)quinazolin-2-yl)pyrrolidin-2-yl)methanol]
< 100	COc1cc(-n2cnc(Nc3nc(N4CCC[C@H]4CO)nc4c3ncn4C)c2)cc(OC)c1OC [Compound 386c, (S)-(1-(9-methyl-6-((1-(3,4,5-trimethoxyphenyl)-1H-imidazol-4-yl)amino)-9H-purin-2-yl)pyrrolidin-2-yl)methanol]
< 100	COc1cc(-n2cnc(Nc3nc(N4CCC[C@H]4C(N)=O)nc4c3ncn4C)c2)cc(OC)c1OC [Compound 387a, (S)-1-(9-methyl-6-((1-(3,4,5-trimethoxyphenyl)-1H-imidazol-4-yl)amino)-9H-purin-2-yl)pyrrolidine-2-carboxamide]
> 1000	COc1cc(-n2cnc(Nc3nc(N4CCC[C@H]4C(N)=O)nc4ncn(C)c34)c2)cc(OC)c1OC [Compound 390b, (S)-1-(7-methyl-6-((1-(3,4,5-trimethoxyphenyl)-1H-imidazol-4-yl)amino)-7H-purin-2-yl)pyrrolidine-2-carboxamide]
< 100	COc1cc(-n2cnc(Nc3nc(N4CCC[C@H]4CO)nc4cc(C)ccc34)c2)cc(OC)c1OC [Compound 391c, (S)-(1-(7-methyl-4-((1-(3,4,5-trimethoxyphenyl)-1H-imidazol-4-yl)amino)quinazolin-2-yl)pyrrolidin-2-yl)methanol]
< 100	COc1cc(-n2cnc(Nc3nc(N4CCC[C@H]4C(N)=O)nc4cc(C)ccc34)c2)cc(OC)c1OC [Compound 392a, (S)-1-(7-methyl-4-((1-(3,4,5-trimethoxyphenyl)-1H-imidazol-4-yl)amino)quinazolin-2-yl)pyrrolidine-2-carboxamide]
> 1000	COc1cc(-n2cnc(Nc3nc(N4CCC[C@H]4C(N)=O)nc4[nH]cc(C#N)c34)c2)cc(OC)c1OC [Compound 395d, (S)-1-(5-cyano-4-((1-(3,4,5-trimethoxyphenyl)-1H-imidazol-4-yl)amino)-7H-pyrrolo[2,3-d]pyrimidin-2-yl)pyrrolidine-2-carboxamide]
100 to 1000	COc1cc(-n2cnc(Nc3nc(N4CCC[C@H]4CO)nc4[nH]cc(C#N)c34)c2)cc(OC)c1OC [Compound 397a, (S)-2-(2-(hydroxymethyl)pyrrolidin-1-yl)-4-((1-(3,4,5-trimethoxyphenyl)-1H-imidazol-4-yl)amino)-7H-pyrrolo[2,3-d]pyrimidine-5-carbonitrile]
100 to 1000	COc1cc(-n2cnc(Nc3nc(N4CCC[C@H]4CO)nc4[nH]nc(C)c34)c2)cc(OC)c1OC [Compound 400d, (S)-(1-(3-methyl-4-((1-(3,4,5-trimethoxyphenyl)-1H-imidazol-4-yl)amino)-1H-pyrazolo[3,4-d]pyrimidin-6-yl)pyrrolidin-2-yl)methanol]
> 1000	COc1cc(-n2cnc(Nc3nc(N4CCC[C@H]4C(N)=O)nc4c3c(C)nn4C3CCCCO3)c2)cc(OC)c1OC (stereo partly drawn) [Compound 401a, (2S)-1-(3-methyl-1-(tetrahydro-2H-pyran-2-yl)-4-((1-(3,4,5-trimethoxyphenyl)-1H-imidazol-4-yl)amino)-1H-pyrazolo[3,4-d]pyrimidin-6-yl)pyrrolidine-2-carboxamide]
> 1000	COc1cc(-n2cnc(Nc3nc(N4CCC[C@H]4C(N)=O)nc4[nH]nc(C)c34)c2)cc(OC)c1OC [Compound 401b, (S)-1-(3-methyl-4-((1-(3,4,5-trimethoxyphenyl)-1H-imidazol-4-yl)amino)-1H-pyrazolo[3,4-d]pyrimidin-6-yl)pyrrolidine-2-carboxamide]
< 100	COc1cc(-n2cnc(Nc3nc(N4CCC[C@H]4C(N)=O)nc4sc(CN5CCCC5)cc34)c2)cc(OC)c1OC [Compound 403h, (S)-1-(6-(pyrrolidin-1-ylmethyl)-4-((1-(3,4,5-trimethoxyphenyl)-1H-imidazol-4-yl)amino)thieno[2,3-d]pyrimidin-2-yl)pyrrolidine-2-carboxamide]
< 100	COc1cc(-n2cnc(Nc3nc(N4CCC[C@H]4C(N)=O)nc4sc(CN5CCC(O)CC5)cc34)c2)cc(OC)c1OC [Compound 404b, (S)-1-(6-((4-hydroxypiperidin-1-yl)methyl)-4-((1-(3,4,5-trimethoxyphenyl)-1H-imidazol-4-yl)amino)thieno[2,3-d]pyrimidin-2-yl)pyrrolidine-2-carboxamide]
< 100	COc1cc(-n2cnc(Nc3nc(N4CCC[C@H]4C(N)=O)nc4sc(CN5CCN(C)CC5)cc34)c2)cc(OC)c1OC [Compound 405b, (S)-1-(6-((4-methylpiperazin-1-yl)methyl)-4-((1-(3,4,5-trimethoxyphenyl)-1H-imidazol-4-yl)amino)thieno[2,3-d]pyrimidin-2-yl)pyrrolidine-2-carboxamide]

The next lines start with the compound.

Compound	IC50 [nM]
COc1cc(-n2cnc(Nc3nc(N4CC5(CC5)C[C@H]4CO)c4cccn4n3)c2)cc(OC)c1OC [Compound 380d, (S)-(5-(2-((1-(3,4,5-trimethoxyphenyl)-1H-imidazol-4-yl)amino)pyrrolo[2,1-f][1,2,4]triazin-4-yl)-5-azaspiro[2.4]heptan-6-yl)methanol]	< 100
COc1cc(-n2cnc(Nc3nc(N4CCC[C@H]4CO)c4ccncc4n3)c2)cc(OC)c1OC [Compound 381b, (S)-(1-(2-((1-(3,4,5-trimethoxyphenyl)-1H-imidazol-4-yl)amino)pyrido[3,4-d]pyrimidin-4-yl)pyrrolidin-2-yl)methanol]	< 100
COc1cc(-n2cnc(Nc3nc(N4CCC[C@@H]4CO)nc4cc(N5CCN(C)CC5)ccc34)c2)cc(OC)c1OC [Compound 383a, (R)-(1-(7-(4-methylpiperazin-1-yl)-4-((1-(3,4,5-trimethoxyphenyl)-1H-imidazol-4-yl)amino)quinazolin-2-yl)pyrrolidin-2-yl)methanol]	< 100
COc1cc(-n2cnc(Nc3nc(N4CCC[C@H]4CO)nc4sc(CN5CCCC5)cc34)c2)cc(OC)c1OC [Compound 384b, (S)-(1-(6-(pyrrolidin-1-ylmethyl)-4-((1-(3,4,5-trimethoxyphenyl)-1H-imidazol-4-yl)amino)thieno[2,3-d]pyrimidin-2-yl)pyrrolidin-2-yl)methanol]	< 100
COc1cc(-n2cnc(Nc3nc(N4CCC[C@H]4CO)c4ccc(C5=CCNCC5)cc4n3)c2)cc(OC)c1OC [Compound 385c, (S)-(1-(7-(1,2,3,6-tetrahydropyridin-4-yl)-2-((1-(3,4,5-trimethoxyphenyl)-1H-imidazol-4-yl)amino)quinazolin-4-yl)pyrrolidin-2-yl)methanol]	< 100
COc1cc(-n2cnc(Nc3nc(N4CCC[C@H]4CO)c4ncn(C)c4n3)c2)cc(OC)c1OC [Compound 388b, (S)-(1-(9-methyl-2-((1-(3,4,5-trimethoxyphenyl)-1H-imidazol-4-yl)amino)-9H-purin-6-yl)pyrrolidin-2-yl)methanol]	< 100
COc1cc(-n2cnc(Nc3nc(N4CCC[C@H]4CO)c4c(ncn4C)n3)c2)cc(OC)c1OC [Compound 389c, (S)-(1-(7-methyl-2-((1-(3,4,5-trimethoxyphenyl)-1H-imidazol-4-yl)amino)-7H-purin-6-yl)pyrrolidin-2-yl)methanol]	< 100
COc1cc(-n2cnc(Nc3nc(N4CCC[C@H]4CO)c4ccc(C)cc4n3)c2)cc(OC)c1OC [Compound 393b, (S)-(1-(7-methyl-2-((1-(3,4,5-trimethoxyphenyl)-1H-imidazol-4-yl)amino)quinazolin-4-yl)pyrrolidin-2-yl)methanol]	100 to 1000
COc1cc(-n2cnc(Nc3nc4c(c(N5[C@H](CO)C[C@H]6C[C@H]65)n3)CCC4)c2)cc(OC)c1OC [Compound 394b, ((1R,3S,5R)-2-(2-((1-(3,4,5-trimethoxyphenyl)-1H-imidazol-4-yl)amino)-6,7-dihydro-5H-cyclopenta[d]pyrimidin-4-yl)-2-azabicyclo[3.1.0]hexan-3-yl)methanol]	< 100
COc1cc(-n2cnc(Nc3nc(N4[C@H](CO)C[C@H]5C[C@H]54)nc4c3CCC4)c2)cc(OC)c1OC [Compound 396a, ((1R,3S,5R)-2-(4-((1-(3,4,5-trimethoxyphenyl)-1H-imidazol-4-yl)amino)-6,7-dihydro-5H-cyclopenta[d]pyrimidin-2-yl)-2-azabicyclo[3.1.0]hexan-3-yl)methanol]	< 100
COc1cc(-n2cnc(Nc3nc4c(c(N5CCC[C@H]5CO)n3)CCCCC4)c2)cc(OC)c1OC [Compound 398c, (S)-(1-(2-((1-(3,4,5-trimethoxyphenyl)-1H-imidazol-4-yl)amino)-6,7,8,9-tetrahydro-5H-cyclohepta[d]pyrimidin-4-yl)pyrrolidin-2-yl)methanol]	< 100
COc1cc(-n2cnc(Nc3nc(N4CCC[C@H]4CO)nc4cc(CN5CCCC5)ccc34)c2)cc(OC)c1OC [Compound 399f, (S)-(1-(7-(pyrrolidin-1-ylmethyl)-4-((1-(3,4,5-trimethoxyphenyl)-1H-imidazol-4-yl)amino)quinazolin-2-yl)pyrrolidin-2-yl)methanol]	< 100
COc1cc(-n2cnc(Nc3nc(N4CCC[C@H]4CO)nc4c3c(C)nn4C3CCCCO3)c2)cc(OC)c1OC (stereo partly drawn) [Compound 400c, ((2S)-1-(3-methyl-1-(tetrahydro-2H-pyran-2-yl)-4-((1-(3,4,5-trimethoxyphenyl)-1H-imidazol-4-yl)amino)-1H-pyrazolo[3,4-d]pyrimidin-6-yl)pyrrolidin-2-yl)methanol]	100 to 1000
COc1cc(-n2cnc(Nc3nc(N4CCC[C@H]4CO)c4c(C)nn(C5CCCCO5)c4n3)c2)cc(OC)c1OC (stereo partly drawn) [Compound 402b, ((2S)-1-(3-methyl-1-(tetrahydro-2H-pyran-2-yl)-6-((1-(3,4,5-trimethoxyphenyl)-1H-imidazol-4-yl)amino)-1H-pyrazolo[3,4-d]pyrimidin-4-yl)pyrrolidin-2-yl)methanol]	< 100
COc1cc(-n2cnc(Nc3nc(N4CCC[C@H]4CO)c4c(C)n[nH]c4n3)c2)cc(OC)c1OC [Compound 402c, (S)-(1-(3-methyl-6-((1-(3,4,5-trimethoxyphenyl)-1H-imidazol-4-yl)amino)-1H-pyrazolo[3,4-d]pyrimidin-4-yl)pyrrolidin-2-yl)methanol]	< 100
